Several values for one entry are separate records, joined by “and”; a condition that tells them apart may be missing. Identical values can stand only once. Inconclusive results and toxic doses are left out.
Tested on: P388 leukemia ip, CD2F1 mice, survival T/C
Assay: NCI In Vivo Anticancer Drug Screen. Data for tumor model P388 Leukemia (intraperitoneal) in CD2F1 (CDF1) mice
Conditions: endpoint: median survival time, higher = longer survival
In short: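 Mice carrying the transplanted tumor received test compound or vehicle. Survival was recorded in each group, and the value is the treated-group measurement divided by that of the vehicle-treated control group.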

[1] = dose: 25.0 mg/kg/injection, schedule: Q01DX009 (ip), vehicle: saline with Tween-80
[2] = dose: 50.0 mg/kg/injection, schedule: Q01DX009 (ip), vehicle: saline with Tween-80

O=NN(CCCl)C(=O)NC1CC2CCC1C2 (configuration not stated) was tested, and the T/C (dose: 12.5 mg/kg/injection, schedule: Q01DX009 (ip), vehicle: saline with Tween-80) was 195 % of control, the T/C [1] was 250 % of control and the T/C (dose: 25.0 mg/kg/injection, schedule: Q04DX003 (ip), vehicle: saline with Tween-80) was 225 % of control. For the same compound, the T/C (dose: 33.0 mg/kg/injection, schedule: Q04DX003 (ip), vehicle: saline with Tween-80) was 213 % of control, the T/C [2] was 109 % of control and the T/C (dose: 50.0 mg/kg/injection, schedule: Q04DX003 (ip), vehicle: saline with Tween-80) was 204 % of control and 295 % of control. The T/C (dose: 75.0 mg/kg/injection, schedule: Q04DX003 (ip), vehicle: saline with Tween-80) was 90 % of control.

In the case of N#CC(/C=C/c1ccccc1)(NO)Nc1cccc(Cl)c1 (configuration not stated), the T/C (dose: 60.0 mg/kg/injection, schedule: Q01DX005 (ip), vehicle: saline with Tween-80) was 116 % of control and the T/C (dose: 120.0 mg/kg/injection, schedule: Q01DX005 (ip), vehicle: saline with Tween-80) was 114 % of control.

For CCCOc1ccc(C(C)c2cc3c(cc2OCC)OCO3)cc1 (configuration not stated), the T/C (dose: 50.0 mg/kg/injection, schedule: Q01DX005 (ip), vehicle: Klucel + Tween-80) was 104 % of control, the T/C (dose: 100.0 mg/kg/injection, schedule: Q01DX005 (ip), vehicle: Klucel + Tween-80) was 98 % of control and the T/C (dose: 200.0 mg/kg/injection, schedule: Q01DX005 (ip), vehicle: Klucel + Tween-80) was 97 % of control.

For CC(=O)[C@]1(O)Cc2c(O)c3c(c(O)c2[C@@H](OC2CC(N)C(O)C(C)O2)C1)C(=O)c1c(O)cccc1C3=O (some centres not stated), the T/C (dose: 0.05 mg/kg/injection, schedule: Q01DX009 (ip), vehicle: saline) was 150 % of control, the T/C (dose: 0.08 mg/kg/injection, schedule: Q01DX009 (ip), vehicle: saline) was 159 % of control and the T/C (dose: 0.08 mg/kg/injection, schedule: Q04DX003 (ip), vehicle: water) was 100 % of control and 97 % of control. For the same compound, the T/C (dose: 0.1 mg/kg/injection, schedule: Q04DX003 (ip), vehicle: saline) was 123 % of control, the T/C (dose: 0.14 mg/kg/injection, schedule: Q01DX009 (ip), vehicle: saline) was 177 % of control and the T/C (dose: 0.16 mg/kg/injection, schedule: Q04DX003 (ip), vehicle: water) was 109 % of control and 87 % of control. For the same compound, the T/C (dose: 0.25 mg/kg/injection, schedule: Q04DX003 (ip), vehicle: water) was 119 % of control and 94 % of control, the T/C (dose: 0.3 mg/kg/injection, schedule: Q04DX003 (ip), vehicle: saline) was 154 % of control and the T/C (dose: 0.32 mg/kg/injection, schedule: Q04DX003 (ip), vehicle: saline) was 159 % of control. For the same compound, the T/C (dose: 0.36 mg/kg/injection, schedule: Q04DX003 (ip), vehicle: saline) was 160 % of control and 173 % of control, the T/C (dose: 0.36 mg/kg/injection, schedule: Q04DX003 (ip), vehicle: water) was 161 % of control and the T/C (dose: 0.39 mg/kg/injection, schedule: Q01DX001 (ip), vehicle: saline) was 159 % of control. The T/C (dose: 0.39 mg/kg/injection, schedule: Q01DX009 (ip), vehicle: saline) was 100 % of control, the T/C (dose: 0.39 mg/kg/injection, schedule: Q04DX003 (ip), vehicle: saline) was 163 % of control and the T/C (dose: 0.4 mg/kg/injection, schedule: Q04DX003 (ip), vehicle: saline) was 154 % of control. The T/C (dose: 0.43 mg/kg/injection, schedule: Q01DX001 (ip), vehicle: saline) was 152 % of control and 160 % of control, the T/C (dose: 0.43 mg/kg/injection, schedule: Q04DX003 (ip), vehicle: saline) was 165 % of control and the T/C (dose: 0.5 mg/kg/injection, schedule: Q04DX003 (ip), vehicle: water) was 116 % of control and 124 % of control. For the same compound, the T/C (dose: 0.54 mg/kg/injection, schedule: Q04DX003 (ip), vehicle: saline) was 161 % of control, the T/C (dose: 0.6 mg/kg/injection, schedule: Q04DX003 (ip), vehicle: saline) was 154 % of control and 168 % of control and the T/C (dose: 0.6 mg/kg/injection, schedule: Q04DX003 (ip), vehicle: water) was 170 % of control. For the same compound, the T/C (dose: 0.6 mg/kg/injection, schedule: Q04DX003 (oral), vehicle: saline) was 112 % of control, the T/C (dose: 0.64 mg/kg/injection, schedule: Q04DX003 (ip), vehicle: water) was 109 % of control and 115 % of control and 274 % of control and the T/C (dose: 0.65 mg/kg/injection, schedule: Q01DX001 (ip), vehicle: saline) was 172 % of control. The T/C (dose: 0.65 mg/kg/injection, schedule: Q04DX003 (ip), vehicle: saline) was 172 % of control, the T/C (dose: 0.72 mg/kg/injection, schedule: Q01DX001 (ip), vehicle: saline) was 161 % of control and 180 % of control and the T/C (dose: 0.72 mg/kg/injection, schedule: Q04DX003 (ip), vehicle: saline) was 167 % of control. The T/C (dose: 0.9 mg/kg/injection, schedule: Q04DX003 (ip), vehicle: saline) was 160 % of control and 186 % of control, the T/C (dose: 1.0 mg/kg/injection, schedule: Q04DX003 (ip), vehicle: saline) was 92 % of control and 94 % of control and the T/C (dose: 1.0 mg/kg/injection, schedule: Q04DX003 (ip), vehicle: water) was 102 % of control. For the same compound, the T/C (dose: 1.0 mg/kg/injection, schedule: Q04DX003 (oral), vehicle: saline) was 110 % of control, the T/C (dose: 1.08 mg/kg/injection, schedule: Q01DX001 (ip), vehicle: saline) was 95 % of control and the T/C (dose: 1.08 mg/kg/injection, schedule: Q04DX003 (ip), vehicle: saline) was 100 % of control. The T/C (dose: 1.2 mg/kg/injection, schedule: Q01DX001 (ip), vehicle: saline) was 105 % of control, the T/C (dose: 1.2 mg/kg/injection, schedule: Q01DX001 (oral), vehicle: saline) was 110 % of control and the T/C (dose: 1.2 mg/kg/injection, schedule: Q04DX003 (ip), vehicle: saline) was 110 % of control. For the same compound, the T/C (dose: 1.5 mg/kg/injection, schedule: Q04DX003 (ip), vehicle: saline) was 108 % of control, the T/C (dose: 1.67 mg/kg/injection, schedule: Q04DX003 (oral), vehicle: saline) was 115 % of control and the T/C (dose: 2.0 mg/kg/injection, schedule: Q01DX001 (oral), vehicle: saline) was 102 % of control. The T/C (dose: 2.0 mg/kg/injection, schedule: Q04DX003 (ip), vehicle: water) was 116 % of control, the T/C (dose: 2.78 mg/kg/injection, schedule: Q04DX003 (oral), vehicle: saline) was 106 % of control and 110 % of control and the T/C (dose: 3.2 mg/kg/injection, schedule: Q04DX003 (ip), vehicle: saline) was 105 % of control. The T/C (dose: 3.33 mg/kg/injection, schedule: Q01DX001 (oral), vehicle: saline) was 111 % of control and 116 % of control, the T/C (dose: 4.63 mg/kg/injection, schedule: Q04DX003 (oral), vehicle: saline) was 113 % of control and the T/C (dose: 5.56 mg/kg/injection, schedule: Q01DX001 (oral), vehicle: saline) was 114 % of control. The T/C (dose: 6.4 mg/kg/injection, schedule: Q04DX003 (ip), vehicle: saline) was 99 % of control, the T/C (dose: 7.72 mg/kg/injection, schedule: Q04DX003 (oral), vehicle: saline) was 166 % of control and the T/C (dose: 9.26 mg/kg/injection, schedule: Q01DX001 (oral), vehicle: saline) was 152 % of control. For the same compound, the T/C (dose: 12.9 mg/kg/injection, schedule: Q04DX003 (oral), vehicle: saline) was 164 % of control, the T/C (dose: 6.25 micrograms/kg/injection, schedule: Q04DX003 (ip), vehicle: saline) was 120 % of control and the T/C (dose: 15.0 micrograms/kg/injection, schedule: Q04DX003 (ip), vehicle: saline) was 111 % of control. For the same compound, the T/C (dose: 25.0 micrograms/kg/injection, schedule: Q04DX003 (ip), vehicle: saline) was 116 % of control, the T/C (dose: 31.0 micrograms/kg/injection, schedule: Q04DX003 (ip), vehicle: saline) was 111 % of control and the T/C (dose: 50.0 micrograms/kg/injection, schedule: Q04DX003 (ip), vehicle: saline) was 111 % of control. For the same compound, the T/C (dose: 62.0 micrograms/kg/injection, schedule: Q04DX003 (ip), vehicle: saline) was 107 % of control, the T/C (dose: 125.0 micrograms/kg/injection, schedule: Q04DX003 (ip), vehicle: saline) was 107 % of control and the T/C (dose: 200.0 micrograms/kg/injection, schedule: Q04DX003 (ip), vehicle: saline) was 119 % of control. For the same compound, the T/C (dose: 500.0 micrograms/kg/injection, schedule: Q04DX003 (ip), vehicle: saline) was 156 % of control, the T/C (dose: 800.0 micrograms/kg/injection, schedule: Q04DX003 (ip), vehicle: saline) was 122 % of control and the T/C (dose: 1000.0 micrograms/kg/injection, schedule: Q04DX003 (ip), vehicle: saline) was 166 % of control. The T/C (dose: 2000.0 micrograms/kg/injection, schedule: Q04DX003 (ip), vehicle: saline) was 88 % of control, the T/C (dose: 3200.0 micrograms/kg/injection, schedule: Q04DX003 (ip), vehicle: saline) was 103 % of control and the T/C (dose: 6400.0 micrograms/kg/injection, schedule: Q04DX003 (ip), vehicle: saline) was 116 % of control.

CC(C)(CBr)COP1(=O)NCC(C)(C)CO1 (configuration not stated) was tested, and the T/C (dose: 50.0 mg/kg/injection, schedule: Q01DX005 (ip), vehicle: Klucel (hydroxypropylcellulose) (HPC)) was 106 % of control, the T/C (dose: 100.0 mg/kg/injection, schedule: Q01DX005 (ip), vehicle: Klucel (hydroxypropylcellulose) (HPC)) was 105 % of control and the T/C (dose: 200.0 mg/kg/injection, schedule: Q01DX005 (ip), vehicle: Klucel (hydroxypropylcellulose) (HPC)) was 106 % of control.

For [N-]=[N+]=NCN1C(=O)C2C3C=CC(C2C1=O)C1C2C(=O)N(CN=[N+]=[N-])C(=O)C2C31 (configuration not stated), the T/C [1] was 106 % of control, the T/C [2] was 108 % of control and the T/C (dose: 100.0 mg/kg/injection, schedule: Q01DX009 (ip), vehicle: saline with Tween-80) was 100 % of control. The T/C (dose: 200.0 mg/kg/injection, schedule: Q01DX009 (ip), vehicle: saline with Tween-80) was 115 % of control.

Source: PubChem BioAssay AID330 (DTP/NCI, 2004)
